Columns and labels:
[1] = molecular target: T1, Monoacylglycerol O-acyltransferase 2 (MGAT2) (Homo sapiens, UniProt Q3SYC2); assay: MGAT2 enzyme inhibition IC50 (assay details not given); type: biochemical
T1 construct: gene MOGAT2

[2] = molecular target: T2, Monoacylglycerol O-acyltransferase 2 (MGAT2) (Mus musculus, UniProt Q80W94); assay: MGAT2 enzyme inhibition IC50 (assay details not given); anorectic effect lost in MGAT2 KO mice; type: biochemical
T2 construct: gene Mogat2
T2 sequence (Q80W94 whole entry): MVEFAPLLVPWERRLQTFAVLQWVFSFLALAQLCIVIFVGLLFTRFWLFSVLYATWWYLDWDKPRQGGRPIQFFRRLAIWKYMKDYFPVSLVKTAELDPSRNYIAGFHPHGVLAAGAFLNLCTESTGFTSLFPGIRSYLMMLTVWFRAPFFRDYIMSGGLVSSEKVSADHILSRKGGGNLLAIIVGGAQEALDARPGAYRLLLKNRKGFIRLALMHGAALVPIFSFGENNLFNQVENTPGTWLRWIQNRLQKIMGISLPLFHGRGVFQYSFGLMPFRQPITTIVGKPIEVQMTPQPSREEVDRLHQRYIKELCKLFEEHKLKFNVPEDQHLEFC

T1 sequence (Q3SYC2 whole entry): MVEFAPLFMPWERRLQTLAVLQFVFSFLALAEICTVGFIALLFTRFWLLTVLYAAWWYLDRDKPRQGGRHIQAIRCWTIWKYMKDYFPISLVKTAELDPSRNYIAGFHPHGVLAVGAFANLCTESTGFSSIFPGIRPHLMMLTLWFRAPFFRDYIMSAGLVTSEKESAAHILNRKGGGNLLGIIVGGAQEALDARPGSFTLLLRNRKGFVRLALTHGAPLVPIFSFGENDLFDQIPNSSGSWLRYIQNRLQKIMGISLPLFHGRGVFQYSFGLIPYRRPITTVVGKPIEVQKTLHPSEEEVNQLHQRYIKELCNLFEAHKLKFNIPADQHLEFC

What does the source list for `Cn1nc(C(F)(F)F)cc1-c1cnc(N2CCc3cc(S(=O)(=O)Nc4c(F)cc(Cl)cc4F)cc(N4CCCC4=O)c32)nc1` [compA, compound A]?
IC50 [1]: 7.8 nM; IC50 [2]: 2.4 nM
